Source: paper PMC12114633, “α-Glucosidase Inhibition Mechanism and Anti-Hyperglycemic Effects of Flavonoids from Astragali Radix and Their Mixture Effects” (Pharmaceuticals, 2025)
Like-named read-outs stand apart in the source and are kept apart here.

Key:
α-glucosidase [1] = settings: cited from earlier work
[2] = target: T1, Saccharomyces cerevisiae α-glucosidase (Saccharomyces cerevisiae, UniProt P53341); test: biochemical; settings: 5 mM pNPG, PBS pH 6.8, 37 °C
T1 construct: purchased Shanghai Yuanye Biotechnology Co., Shanghai, China Lot No. M23HS178879 (catalogue number not given)
T1 sequence (P53341 whole entry): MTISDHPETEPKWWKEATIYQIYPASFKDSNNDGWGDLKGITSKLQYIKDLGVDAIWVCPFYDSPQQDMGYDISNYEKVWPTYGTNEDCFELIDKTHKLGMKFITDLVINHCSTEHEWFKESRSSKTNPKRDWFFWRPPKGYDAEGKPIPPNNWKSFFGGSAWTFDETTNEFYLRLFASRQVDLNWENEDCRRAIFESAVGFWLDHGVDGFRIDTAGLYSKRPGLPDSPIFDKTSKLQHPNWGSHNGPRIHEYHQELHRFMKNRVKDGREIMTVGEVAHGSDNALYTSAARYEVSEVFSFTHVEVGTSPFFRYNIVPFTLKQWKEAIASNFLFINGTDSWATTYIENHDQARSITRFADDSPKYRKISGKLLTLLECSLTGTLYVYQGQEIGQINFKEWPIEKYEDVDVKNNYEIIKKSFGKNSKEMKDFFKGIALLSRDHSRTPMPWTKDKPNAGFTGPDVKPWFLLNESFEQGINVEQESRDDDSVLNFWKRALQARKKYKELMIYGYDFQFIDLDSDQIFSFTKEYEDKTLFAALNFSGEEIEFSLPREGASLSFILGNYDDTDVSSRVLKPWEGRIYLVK
Description: (§1) The α-glucosidase inhibitory effects of flavonoids were evaluated as in a previous report with slight modifications (including changes in the concentrations of the enzyme, substrate, and Na2CO3). Briefly, 50 μL of phosphate-buffered saline (PBS, 0.1 M, pH 6.8), the test compound, and α-glucosidase (0.2 U/mL) were preincubated in a 96-well plate at 37 °C for 10 min. The reaction was then initiated by adding 50 μL of 5 mM pNPG as the substrate. Subsequently, the 96-well plate was incubated for an additional 30 min at 37 °C, then 50 μL of 0.2 M Na2CO3 was added to terminate the reaction. Absorbance was measured at under 405 nm.

α-glucosidase [3] = target: T2, α-glucosidase (Saccharomyces cerevisiae, UniProt P53341); test: Inhibitory kinetic analysis (Lineweaver–Burk plot); type: biochemical; settings: Lineweaver–Burk plots, pNPG 0.31–20 mM
T2 construct: purchased Shanghai Yuanye Biotechnology Co., Shanghai, China Lot No. M23HS178879 (catalogue number not given)
T2 sequence (P53341 whole entry): as above
Description: The type of inhibition was determined by using the kinetics curve and the Lineweaver–Burk plot. […] These compounds were incubated with α-glucosidase at 37 °C for 30 min. After incubation, various concentrations of pNPG (0.31–20 mM) were added, and absorbance was measured at 405 nm. The Lineweaver–Burk plot was obtained by plotting 1/[S] on the x-axis and 1/v on the y-axis, where [S] represents substrate concentration and v represents the reaction velocity.

α-glucosidase [4] = target: T2, α-glucosidase; test: CD spectroscopy, secondary structure of α-glucosidase (BeStSel); settings: for β-turn: free enzyme 11.7; for β-sheet: free enzyme 28.8; for random coil: free enzyme 45.2; for α-helix: free enzyme 14.4
Description: CD spectra in the far-UV region (190–250 nm) were scanned by using a CD spectrometer (JASCO-1.5 Tokyo, Japan). […] The slit width was set to 1 nm, and the baseline was calibrated with PBS (phosphate buffered saline). CD spectra were averaged over three scans under a constant nitrogen flow, with the buffer signal subtracted. The results were analyzed using the BeStSel database (https://bestsel.elte.hu/index.php, accessed on 16 May 2025).

α-glucosidase [5] = target: T2, α-glucosidase; test: biochemical; type: binding; settings: for binding to α-glucosidase (SPR): result in words
Description: SPR analysis was performed using the Biacore 8K system (GE Healthcare, Uppsala, Sweden). α-Glucosidase (0.05 mg/mL) was fixed on the CM5 sensor chip by an amine coupling kit. Subsequently, various concentrations of the 16 flavonoids dissolved in 5% DMSO were continuously injected onto the surface of α-glucosidase coated surface. After each sample injection, the sensor chip surface was washed and regenerated with running buffer (PBS) at a flow rate of 30 µL/min. According to the 1:1 Langmuir model, the equilibrium dissociation constant (KD) was calculated by the Biacore evaluation software. For sensorgrams without significant kinetic features, the KD values were calculated using the steady-state analysis.

normal C57BL/6J mice = test: Oral sucrose test, postprandial blood glucose; type: in vivo; settings: for Blood glucose levels: 30 min after sucrose 4 g/kg, n = 8, in mmol/L (unit assumed); for Rate of blood glucose reduction: vs model group, 30 min after sucrose
Source text: Male C57BL/6J mice of SPF grade, aged 6–8 weeks and weighing 18–22 g, were obtained from the Experimental Animal Science Department of Peking University. The mice were housed in a controlled environment with a 12:12 light/dark cycle and a constant temperature. They were provided with standard pellet feed and given free access to drinking water. To ensure acclimatization, the mice were allowed to adjust to the diet and housing conditions for one week prior to the experiment. All animal experiments were performed in compliance with the relevant laws and institutional guidelines for the care and use of laboratory animals in China. The experiments were approved by the Laboratory Animal Management and Ethics Committee of Peking University (LA2021443). Additionally, the certification number for the laboratory animal personnel is 1120111300011.
The 16 flavonoids were subsequently evaluated for their potential antihyperglycemic effects by using the oral sucrose test, which is commonly used to evaluate intestinal α-glucosidase inhibition in vivo [62]. Normal C57BL/6J mice were randomly divided into model groups and the 16 flavonoid compound groups (n = 8 per group), respectively. The flavonoids at different concentrations were suspended in 0.5% sodium carboxymethyl cellulose (CMC-Na). […] Fifteen minutes after drug administration, the mice were given a sucrose solution (4 g/kg). Blood samples were collected from the tail vein at 30 min after sucrose loading, and blood glucose levels were measured using an Accu-Chek Performa glucometer (Roche Diagnostics, SN: 79508621393, Shanghai, China). The rate of blood glucose reduction was calculated using the following Formula (4):(4) The rate of blood glucose reduction%=the model blood glucose-the sample blood glucose/the model blood glucose×100%

α-glucosidase [6] = target: T2, α-glucosidase; test: Mixture effects of flavonoid combinations on α-glucosidase; type: biochemical; settings: calculated from the dose–response curve
Description: as §1
The inhibitory activity of the composition was evaluated using the same method described in Section 3.2. […] The combination index (CI, Formula (3)) was subsequently used to assess the interactions between the compounds [60].(2) Y=Bottom+Top−Bottom/1+10^^((LogIC50−X)×HillSlope)
In Formula (3), (D)j represents the concentration of component j in the mixture needed to achieve an effect of x, while (Dx)j denotes the concentration of component j required to produce the same effect when acting alone. Here, x refers to the inhibition rate produced by the composition, and n indicates the number of individual compounds in the composition.

[7] = literature values, reference given, read-out: IC50 in References
[8] = molar ratio 10:1, α-glucosidase 4 μM
[9] = molar ratio 40:1, α-glucosidase 4 μM
[10] = molar ratio compound:α-glucosidase 10:1, α-glucosidase 4 μM
[11] = α-glucosidase 0.2 U/mL, read-out: IC50
[12] = kinetic model (1:1 Langmuir), read-out: KD

| Compound | IC50 ([2]; IC50, α-glucosidase 0.2 U/mL) | type of inhibition on α-glucosidase (α-glucosidase [3]) | β-turn (α-glucosidase [4]; [8]) | β-sheet (α-glucosidase [4]; [8]) | random coil (α-glucosidase [4]; [8]) | β-turn (α-glucosidase [4]; [9]) | α-helix (α-glucosidase [4]; [9]) | β-sheet (α-glucosidase [4]; [9]) | random coil (α-glucosidase [4]; [9]) | α-helix (α-glucosidase [4]; [10]) | Kd (α-glucosidase [5]) | Blood glucose levels (normal C57BL/6J mice; 10 mg/kg oral) | Rate of blood glucose reduction (normal C57BL/6J mice; 10 mg/kg oral) | Blood glucose levels (normal C57BL/6J mice; 50 mg/kg oral) | Rate of blood glucose reduction (normal C57BL/6J mice; 50 mg/kg oral) | Blood glucose levels (normal C57BL/6J mice; 100 mg/kg oral) | Rate of blood glucose reduction (normal C57BL/6J mice; 100 mg/kg oral) | binding to α-glucosidase (SPR) (α-glucosidase [5]) | IC05 (α-glucosidase [6]) | further results |
| --- | --- | --- | --- | --- | --- | --- | --- | --- | --- | --- | --- | --- | --- | --- | --- | --- | --- | --- | --- | --- |
| O=c1c(-c2ccc(O)cc2)coc2cc(O)ccc12 [C11, daidzein] | 83.7 ± 20.2 µM | non-competitive inhibitors | 12.7% | 28.8% | 40.8% | 14.3% | 14.6% | 25.5% | 45.5% | 17.7% | 20 µM |  |  |  |  |  |  |  |  | IC50 (α-glucosidase [1]; [7]): 150 µM |
| CC(=O)Cc1cc(=O)c2c(C)cc(O)c([C@@H]3O[C@H](CO)[C@@H](O)[C@H](O)[C@H]3OC(=O)/C=C/c3ccc(O)cc3)c2o1 [Aloeresin A, reference compound] |  |  |  |  |  |  |  |  |  |  |  |  |  |  |  |  |  |  |  | IC50 (α-glucosidase [1]; read-out: IC50): 11900 µM |
| COc1ccc(C2COc3cc(O)ccc3C2)c(O)c1OC (stereo not shown) [C17, isomucronulatol] | 354 ± 40.4 µM | mixed-type inhibitors | 11.7% | 24.3% | 49.4% | 13.6% | 17.4% | 31.3% | 37.8% | 14.6% | > 2000 µM | 14.46 ± 0.69 | 6.32% | 14.29 ± 0.80 | 7.45% | 13.24 ± 1.18 | 14.25% | did not show binding |  |  |
| O=C(/C=C/c1ccc(O)cc1)c1ccc(O)cc1O [C4, isoliquiritigenin] | 69.1 ± 10.7 µM | mixed-type inhibitors | 11.7% | 31.0% | 42.3% | 12.1% | 14.1% | 24.1% | 49.7% | 15.0% | > 2000 µM | 12.81 ± 1.00 | 8.07% | 13.05 ± 1.44 | 6.37% |  |  | did not show binding | 9.73 µM | IC15 (concentration corresponding to a 15% inhibition rate) (α-glucosidase [6]): 20 µM; Blood glucose levels (normal C57BL/6J mice; 250 mg/kg oral): 11.90 ± 0.62; Rate of blood glucose reduction (normal C57BL/6J mice; 250 mg/kg oral): 14.62% |
| COc1ccc2c(c1OC)OC1c3ccc(O[C@@H]4O[C@H](CO)[C@@H](O)[C@H](O)[C@H]4O)cc3OCC21 (stereo partly shown) [C19, astrapterocarpan-3-O-glucoside] |  | non-competitive inhibitors | 10.7% | 26.7% | 39.9% | 10.2% | 43.2% | 6.70% | 39.9% | 22.6% |  | 13.71 ± 0.78 | 11.17% |  |  | 13.31 ± 0.58 | 13.77% |  | 82.58 µM | IC50 [2, 11]: 348 ± 32.4 µM; Blood glucose levels (normal C57BL/6J mice; 1 mg/kg oral): 14.30 ± 1.16; Rate of blood glucose reduction (normal C57BL/6J mice; 1 mg/kg oral): 7.37%; Kd (α-glucosidase [5]; [12]): 30 µM |
| COc1cc(-c2oc3cc(O)cc(O)c3c(=O)c2OC2OC(CO)C(O)C(O)C2O)ccc1O (stereo not shown) [C14, isorhamnetin-3-O-glucoside] |  | mixed-type inhibitors | 12.8% | 33.7% | 40.4% | 15.7% | 7.80% | 19.8% | 56.6% | 13.1% |  | 14.84 ± 0.62 | -2.50% | 12.66 ± 0.48 | 12.52% | 12.19 ± 0.81 | 15.80% |  |  | IC50 (α-glucosidase [1]; [7]): 275 µM; IC50 [2, 11]: 228 ± 34 µM; Kd (α-glucosidase [5]; [12]): 383 µM |
| aquilarixanthone [reference compound] |  |  |  |  |  |  |  |  |  |  |  |  |  |  |  |  |  |  |  | IC50 (α-glucosidase [1]; read-out: IC50): 678 µM |
| O=C1C[C@@H](c2ccc(O)cc2)Oc2cc(O)ccc21 [C3, liquiritigenin] | 161 ± 36.3 µM | non-competitive inhibitors | 14.2% | 18.0% | 56.1% | 16.2% | 8.00% | 16.6% | 59.2% | 11.7% | > 2000 µM | 14.06 ± 1.45 | -0.90% | 13.19 ± 1.35 | 5.38% | 11.58 ± 1.23 | 16.95% | did not show binding | 13.71 µM |  |
| Oc1ccc([C@H]2COc3cc(O)ccc3C2)cc1 [C29, equol] | 131 ± 7.65 µM | mixed-type inhibitors | 14.5% | 23.5% | 51.1% | 13.2% | 8.50% | 23.4% | 55.0% | 10.9% | 849 µM | 14.70 ± 1.36 | 8.20% | 13.93 ± 0.62 | 13.04% | 12.56 ± 1.87 | 21.55% |  |  |  |
